These results are taken from patent US20030108462A1, “Method of extracting contaminants from solid matter” (priority 2001, published 2003).

“And” between values parts separate entries of the source, which are not always exact repeats. Identical values can stand only once.

Series [1] in a line: Chelating-agent leaching of comminuted CCA treated wood, chromium. As to conditions: weight basis, before being adjusted for moisture content. The procedure:
(§1) 32 grams of the comminuted treated wood was used to represent 1 mole of the contaminants, and was reacted with 1000 ml of 0.1 mole ethylenediamine-N,N,N′,N′-tetraacetic acid at a temperature of 70° C. for a period of 6 hours. The sample was agitated and allowed to settle periodically to thoroughly mix the wood and the solution, as well as to facilitate leaching. After the last settling period, the mixture stratified into a green colored supernatant which contained the chelated CCA components in soluble form at the top, and clean looking sawdust at the bottom of the reaction container.
(§2) Upon completion of reaction, the supernatant was decanted and retained. The solid section was allowed to drain freely for 15 minutes, after which 500 ml of fresh water was added and the mixture was periodically mixed and allowed to settle for a period of 30 minutes. Similarly, the mixture stratified into a light green solution and cleaner looking saw dust. The liquid was decanted and added to the previously decanted liquid. The settled solids were wrapped in a 250μ filter paper and subjected to a weight of 6 pounds per square inch and allowed to drain. Upon completion, the drained liquid was added to the previously decanted liquids and sent for laboratory analysis. The retained solids were oven dried and analyzed for the target contaminants.
(§3) 100 grams of the comminuted treated wood was used to represent 1 mole of the contaminants and reacted with 1000 mL of 0.1 mole EDTA disodium solution at 30° C. for 30 hours. […]
(§4) Upon completion of reaction, the supernatant was decanted and retained. […] The retained solids were oven dried and analyzed for the target contaminants. […]
(§5) Upon completion of reaction, the supernatant was decanted and retained The solid section was allowed to drain freely for 15 minutes, after which 500 ml of fresh water with a known quality was added and the mixture was periodically mixed and allowed to settle for a period of 30 minutes. […] The retained solids were oven dried and analyzed for the target contaminants.

A short description of series [2]: Chelating-agent leaching of comminuted CCA treated wood, copper. As to conditions: weight basis, before being adjusted for moisture content. The protocol: as §1, §2, §3, §4, §5
A short description of series [3]: Chelating-agent leaching of comminuted CCA treated wood, arsenic. As to conditions: weight basis, before being adjusted for moisture content. The protocol: as §1, §2, §3, §4, §5
The conditions of series [4]: at 25° C.; cited from earlier work.

As to `O=C(O)CN(CCN(CC(=O)O)CC(=O)O)CC(=O)O` [EXAMPLE 1, ethylenediamine-N,N,N′,N′-tetraacetic acid], the “Percent Removal, Chromium” value in series [1] stood at 84.47%. The “Percent Removal, Copper” value in series [2] was 95.54%. In addition, the “Percent Removal, Arsenic” value in series [3] amounted to 93.28%.
Turning to `O=C([O-])CN(CCN(CC(=O)[O-])CC(=O)O)CC(=O)O.[Na+].[Na+]` [EXAMPLE 2, EDTA disodium], in series [1], the “Percent Removal, Chromium” value was determined as 90.86%. Besides, the “Percent Removal, Copper” value in series [2] stood at 98.35%. Further, in series [3], the “Percent Removal, Arsenic” value is reported as 96.36%.
In the case of `O=C(O)CN(CCN(CC(=O)O)CC(=O)O)CC(=O)O` [EXAMPLE 3, EDTA Free Acid], the “Percent Removal, Chromium” value in series [1] was 90.09% and 90.89%. In series [2], the “Percent Removal, Copper” value was 99.75%. In addition, the “Percent Removal, Arsenic” value in series [3] amounted to 96.09%.
Turning to `O=C(O)CN(CCN(CC(=O)O)CC(=O)O)CCN(CC(=O)O)CC(=O)O` [Diethylenetriamine-N,N,N′,N″,N′-pentaacetic Acid], the Solubility in series [4] is 0.46 g/l00 mL at 25 °C.
